Literature values in patent US7972815B2, “Method of producing sugar chain using human G4 polypeptide” (Kyowa Hakko Kirin Co., Ltd., priority 1999, dated 2011).
Read-outs that look alike come from different tables or passages of the source.

Biological target: T1, β3GnT (Homo sapiens, UniProt Q9NY97)
T1 sequence (Q9NY97 1-397): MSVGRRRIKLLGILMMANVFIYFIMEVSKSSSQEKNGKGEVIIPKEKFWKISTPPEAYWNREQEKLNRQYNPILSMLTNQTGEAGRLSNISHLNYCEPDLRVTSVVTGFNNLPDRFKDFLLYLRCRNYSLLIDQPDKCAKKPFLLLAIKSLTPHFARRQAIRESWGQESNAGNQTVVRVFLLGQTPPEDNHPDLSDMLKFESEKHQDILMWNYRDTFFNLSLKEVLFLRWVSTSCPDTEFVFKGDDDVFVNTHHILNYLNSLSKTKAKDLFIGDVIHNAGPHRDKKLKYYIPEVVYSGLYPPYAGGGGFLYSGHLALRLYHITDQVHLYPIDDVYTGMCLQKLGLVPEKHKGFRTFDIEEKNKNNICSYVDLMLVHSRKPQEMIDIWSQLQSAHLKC
Details: reported values, Proc. Natl. Acad. Sci. USA, 96, 406 (1999), cited from earlier work

Structure (SMILES)	Relative activity (%) β3GnT (Table 4) [%]	Relative activity (%) β3GnT (Table 6) [%]
CC(=O)N[C@H]1[C@H](O[C@H]2[C@@H](O)[C@@H](CO)O[C@@H](O[C@H]3[C@H](O)[C@@H](O)C(O)O[C@@H]3CO)[C@@H]2O)O[C@H](CO)[C@@H](O[C@@H]2O[C@H](CO)[C@H](O)[C@H](O)[C@H]2O)[C@@H]1O (mixture of isomers) [LNnT, lacto-N-neotetraose]	100	100
CC(=O)N[C@H]1[C@H](O[C@H]2[C@@H](O)[C@@H](CO)O[C@@H](O[C@H]3[C@H](O)[C@@H](O)C(O)O[C@@H]3CO)[C@@H]2O)O[C@H](CO)[C@@H](O)[C@@H]1O[C@@H]1O[C@H](CO)[C@H](O)[C@H](O)[C@H]1O (stereo partly shown) [LNT, lacto-N-tetraose]	6	6
